Measured values reported in ChEMBL document CHEMBL1781894, “Dibenzocyclooctadiene lignans with antineurodegenerative potential from Kadsura ananosma” (2011).

Key:
[1] = test system: SH-SY5Y; assay: Neuroprotective activity against H2O2-induced neurotoxicity in human SH-SY5Y cells assessed as cell survival at 10 uM incubated for 2 hrs before H2O2 challenge measured after 24 hrs by MTT assay; type: functional; conditions: for viability at 10 µM: Homo sapiens, SH-SY5Y, read-out: Activity
[2] = test system: SH-SY5Y; assay: Neuroprotective activity against H2O2-induced neurotoxicity in human SH-SY5Y cells assessed as cell survival at 1 uM incubated for 2 hrs before H2O2 challenge measured after 24 hrs by MTT assay; type: functional; conditions: for viability at 1 µM: Homo sapiens, SH-SY5Y, read-out: Activity

| Structure (SMILES) | Activity [1] | Activity [2] | viability at 10 µM [1] | viability at 1 µM [2] |
| --- | --- | --- | --- | --- |
| COc1cc2c(c(OC)c1OC)-c1c(cc3c(c1OC)OCO3)[C@H](OC(C)=O)[C@H](C)[C@H](C)C2 (stereo in doubt; 16) [KADSURIN] | 49.7% | 56.3% |  |  |
| COc1cc2c(c(OC)c1OC)-c1c(cc3c(c1OC)OCO3)[C@H](O)[C@H](C)[C@H](C)C2 [ISOGOMISIN O] |  |  | 56.7% | 56.9% |
| COc1cc2c(c(OC)c1OC)-c1c(cc3c(c1OC)OCO3)[C@@H](OC(C)=O)[C@@H](C)[C@H](C)C2=O [ANANOLIGNAN B] |  |  | 69.6% | 59.7% |
| COc1cc2c(c(OC)c1OC)-c1c(cc3c(c1OC)OCO3)[C@H](OC(C)=O)[C@H](C)[C@H](C)C2 (stereo in doubt; 1) [KADSURIN] |  |  | 51.7% | 58.9% |
| CCC(=O)O[C@H]1c2cc3c(c(OC)c2-c2c(cc(OC)c(OC)c2OC)[C@H](OC(C)=O)[C@@H](C)[C@H]1C)OCO3 [ANANOLIGNAN G] |  |  | 56.7% | 57.7% |
| C/C=C(\C)C(=O)O[C@H]1c2cc(OC)c(OC)c(OC)c2-c2c(cc3c(c2OC)OCO3)[C@H](OC(C)=O)[C@H](C)[C@@H]1C [ANANOLIGNAN L] |  |  | 66.9% | 79.2% |
| COc1cc2c(c(OC)c1OC)-c1c(cc3c(c1OC)OCO3)[C@H](O)[C@@H](C)[C@@H](C)C2 [YUNNANKADSURIN B] |  |  | 60.1% | 41.7% |
| COc1cc2c(c(OC)c1OC)-c1c(cc3c(c1OC)OCO3)[C@H](OC(C)=O)[C@H](C)[C@H](C)[C@H]2OC(C)=O [ANANOLIGNAN F] |  |  | 88.6% | 90% |
| C/C=C(/C)C(=O)O[C@H]1c2cc(OC)c(OC)c(OC)c2-c2c(cc3c(c2OC)OCO3)[C@H](OC(C)=O)[C@H](C)[C@@H]1C [INTERIOTHERIN C] |  |  | 53.6% | 45.7% |
| C/C=C(/C)C(=O)O[C@H]1c2cc(OC)c(OC)c(OC)c2-c2c(cc3c(c2OC)OCO3)[C@H](OC(=O)C(C)C)[C@H](C)[C@@H]1C [ANANOLIGNAN M] |  |  | 64.5% | 74% |
| COc1cc2c(c(OC)c1OC)-c1c(cc3c(c1OC)OCO3)[C@H](OC(C)=O)[C@H](C)[C@H](C)[C@@H]2O [ANANOLIGNAN D] |  |  | 63% | 64.3% |
| C/C=C(/C)C(=O)O[C@H]1c2cc(OC)c(OC)c(OC)c2-c2c(cc3c(c2OC)OCO3)[C@H](OC(=O)CCC)[C@H](C)[C@@H]1C [ANANOLIGNAN N] |  |  | 66.8% | 75% |
| COc1cc2c(c(OC)c1OC)-c1c(cc3c(c1OC)OCO3)[C@H](OC(=O)c1ccccc1)[C@H](C)[C@H](C)[C@H]2OC(C)=O [ANANOLIGNAN K] |  |  | 71.4% | 68.9% |
| CCCC(=O)O[C@H]1c2cc3c(c(OC)c2-c2c(cc(OC)c(OC)c2OC)[C@H](OC(C)=O)[C@@H](C)[C@H]1C)OCO3 [ANANOLIGNAN I] |  |  | 60.1% | 61.1% |
| C/C=C(\C)C(=O)O[C@H]1c2cc(OC)c(OC)c(OC)c2-c2c(cc3c(c2OC)OCO3)[C@H](O)[C@H](C)[C@@H]1C [ANANOSIN A] |  |  | 68.2% | 66.4% |
| COc1cc2c(c(OC)c1OC)-c1c(cc3c(c1OC)OCO3)[C@H](O)[C@H](C)[C@H](C)[C@@H]2O [ANANOLIGNAN C] |  |  | 59.6% | 57.7% |
| COc1cc2c(c(OC)c1OC)-c1c(cc3c(c1OC)OCO3)[C@H](O)[C@H](C)[C@H](C)[C@H]2OC(C)=O [ANANOLIGNAN E] |  |  | 56.3% | 62% |
| COc1cc2c(c(OC)c1OC)-c1c(cc3c(c1OC)OCO3)[C@H](OC(=O)C(C)C)[C@H](C)[C@H](C)[C@H]2OC(C)=O [ANANOLIGNAN H] |  |  | 63.9% | 64.1% |
| CCC(C)C(=O)O[C@H]1c2cc3c(c(OC)c2-c2c(cc(OC)c(OC)c2OC)[C@H](OC(C)=O)[C@@H](C)[C@H]1C)OCO3 (stereo partly drawn) [ANANOLIGNAN J] |  |  | 55.1% | 52.2% |
